These results are taken from US9974767B2, “Statins in the treatment of muscular dystrophies and myopathies” (University of Washington, priority 2014, dated 2018).

Values joined by “and” are separate entries in the source; they are usually repeats but may differ in a detail not shown here. Identical values can stand only once.

Common to all, as to type: in vivo, mouse
Experiment [1] concerns Phospholamban (PLB), SERCA2a. Description: SERCA2a, PLB S-16 and total PLB expression in cardiac muscle, immunoblotting. To be noted: old mdx mice, vs mdx Con. The source says: Aberrant Ca2+ handling in dystrophic cardiomyocytes leads to impaired relaxation, which is a major cause of diastolic dysfunction. […] Phospholamban (PLB) is a major inhibitor of SERCA activity and can therefore depress cardiac function.

Experiment [2] has as its system mdx mice. Put plainly: Plasma creatine kinase (CK) activity as measure of whole-body muscle damage.
Experiment [3] concerns mdx mice. Put plainly: Diaphragm specific force, ex vivo muscle strips. The text has this: Therefore, it is often difficult to fully evaluate the therapeutic potential of these compounds. When compared with results obtained with a clinically relevant dystrophin gene therapy approach, the magnitude of increased diaphragm force in Simvastatin-treated mice (25%) is quite impressive. Specifically, systemic delivery of a micro-dystrophin-expressing AAV vector to mdx mice provides a slightly lower (20%) average improvement in diaphragm specific force.
In mdx mice, the diaphragm is the most severely affected skeletal muscle and diaphragm dysfunction is a major cause of respiratory failure in DMD.
The diaphragm most closely recapitulates the functional deficits and fibrotic deposition that occur in DMD. […] The replacement of muscle fibers with fibrotic connective tissue is a major cause of impaired muscle force generation in DMD and therefore an important therapeutic target. […] Quantification of total collagen I levels in diaphragm muscles by hydroxyproline assay also indicated a 50% reduction in fibrosis for mdx Sim mice (FIG. 13E).
Diaphragm function, ex vivo, was measured as described previously. Briefly, diaphragm strips (2-3 mm wide) were perfused with a physiological solution bubbled with 95% O2-5% CO2. Stimulation was provided by two platinum electrodes, attached along the sides of the chamber. A lengthforce curve, established using 120 Hz isometric contractions (300 ms duration spaced 1 min apart, established the optimum length (length producing maximum tetanic force), which was later used to calculate the specific force (force divided by cross-sectional area).

As for `CCC(C)(C)C(=O)O[C@H]1C[C@@H](C)C=C2C=C[C@H](C)[C@H](CC[C@@H]3C[C@@H](O)CC(=O)O3)[C@H]21` [Simvastatin, simvastatin], the “increase of PLB S-16” value in experiment [1] was determined as 55%. The “reduction in plasma creatine kinase (CK) activity level” value with mdx mice [2] (mdx Sim vs mdx Con, oral 5-10 mg/kg/day for 8 months from 3 weeks of age) turned out to be 85%. In the experiment with mdx mice [2] (mdx mice, 8 months, drinking water 10 mg/kg/day), the “reduction of CK levels compared to untreated mdx mice” value was around 8 fold. In addition, the “improvement of diaphragm specific force” value was 25% and 20-25% in the experiment on mdx mice [3] (mdx Sim vs mdx Con, 8 months treatment, stimulation 1 to 120 Hz); 20-25% in the experiment with mdx mice [3] (mdx Sim vs mdx Con, 8 months treatment, stimulation 1 to 120 Hz, listed as simvastatin); 20-30% with mdx mice [3] (old mdx mice, 2 months treatment from 12 months of age, 10 to 120 Hz, vs untreated mdx).
